The test system of test [1] is B. longum subsp. infantis. The experiment in a line: Growth of B. longum subsp. infantis in the presence of acid-reducing compounds (OD600). The class given is cell-based. To be noted: 24 hours; 125 μg/mL; versus vehicle controls. As for the experimental part: Growth of B. longum subsp. infantis was assessed in the presence of various acid-reducing compounds, including proton pump inhibitor (PPI) compounds and an H2 receptor antagonist. Stock solutions were prepared by adding 10 mg/mL omeprazole, esomeprazole, lansoprazole, pantoprazole, rabeprazole, and famotidine to DMSO. The stock solutions were diluted 1:4 in PBS and then added in 2-fold serial dilutions to Reinforced Clostridial Media (RCM). The media was then inoculated with 5×10^5 colony forming units (CFU) of B. longum subsp. infantis and incubated under anaerobic conditions at 37° C. Vehicle only control groups consisted of 5×10^5 CFU B. longum subsp. infantis incubated in RCM with the same amounts of PBS and DMSO as the PPI conditions for each dose.

Test [2] deals with B. longum subsp. infantis. The experiment in a line: Viability of B. longum subsp. infantis after exposure to acid reducing compounds (anaerobic CFU). It counts as cell-based. To be noted: 1 μg/ml and 0.5 μg/ml in citrate buffer (pH 5), 3 hours at 37° C.; with respect to buffer only controls. As for the experimental part: Viability of B. longum subsp. infantis following exposure to various acid reducing compounds was examined. The benzimidazole derivative compounds omeprazole, esomeprazole, lansoprazole, pantoprazole, and rabeprazole and the H2 receptor antagonist famotidine were suspended in citrate buffer (pH 5) to concentrations of 1 μg/ml and 0.5 μg/ml. An amount of 2.4×10^8 colony forming units (CFU) B. longum subsp. infantis was pelleted and resuspended in each of the citrate buffer and drug solutions. Controls included 2.4×10^8 CFU B. longum subsp. infantis added to citrate buffer alone. Cells were incubated for 3 hours at 37° C. and then plated under anaerobic conditions. Anaerobic CFU were quantified to assess viability.

On to `Cc1c(OCC(F)(F)F)ccnc1C[S+]([O-])c1nc2ccccc2[nH]1` (centres unmarked) [lansoprazole], for which, in test [1], the OD600 values entry was “reduced OD600 values with respect to vehicle controls”. The “anaerobic CFU counts” value in test [2] is reported as “generally higher”.

For the origin of these results see patent publication US12364721B2, “Compositions and methods for treatment of inflammatory and immune diseases” (Prolacta Bioscience, Inc., priority 2019, dated 2025).
